Molecules are shown by their SMILES. Read-outs that look alike come from different tables or passages of the source.

A short description of one data set: LD50 os (acute toxicity). The conditions noted are these: in vivo, po.
The next data set has as its target T1, β-receptors (Canis lupus familiaris, UniProt P79148).
T1 construct: tachycardia in conscious dogs; from tissue; host or cells: heart in the living conscious dog (in vivo, i.v. dosing)
In words: antagonizing isopropylnoradrenaline induced tachycardia in conscious dogs (i.v.). The settings on record: dog, iv, read-out: ED50 in antagonizing isopropylnoradrenaline induced tachycardia. Format: in vivo. An excerpt: As a standard compound pronethalol was taken into consideration. Pronethalol, i.e. 2-isopropylamino-1-([…])-ethanol, is a known β-blocking agent.

T1 sequence (P79148 whole entry): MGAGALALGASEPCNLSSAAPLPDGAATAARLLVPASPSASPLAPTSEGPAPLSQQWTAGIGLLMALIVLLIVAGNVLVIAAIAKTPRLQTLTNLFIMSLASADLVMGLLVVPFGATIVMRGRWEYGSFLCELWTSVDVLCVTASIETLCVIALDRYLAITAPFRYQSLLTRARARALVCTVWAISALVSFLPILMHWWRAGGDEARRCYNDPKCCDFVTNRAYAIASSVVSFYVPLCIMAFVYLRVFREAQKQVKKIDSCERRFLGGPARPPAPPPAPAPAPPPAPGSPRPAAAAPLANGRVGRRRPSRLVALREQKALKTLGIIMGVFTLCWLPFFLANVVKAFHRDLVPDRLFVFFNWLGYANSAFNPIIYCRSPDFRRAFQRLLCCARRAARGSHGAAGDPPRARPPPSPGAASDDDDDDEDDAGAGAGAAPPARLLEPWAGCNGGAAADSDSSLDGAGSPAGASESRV

For the molecule `CC(C)NCC(O)COc1cccc2c1C(=O)OC2.Cl` (centres unmarked) [Example 1, 7-(2-Hydroxy-3-isopropylamino-propoxy)-phthalide hydrochloride], the LD50 (usually the dose expected to kill half of the subjects tested) in the data set “LD50 os (acute toxicity)” is > 500 mg/kg. Besides, at β-receptors, the ED50 (commonly the midpoint of the dose-response relation) came out at 0.01 mg/kg.
Consider `CC(C)NCC(O)COc1ccc2c(c1)C(=O)OC2` (centres unmarked) [Example 2, 6-(2-Hydroxy-3-isopropylamino-propoxy)-phthalide], for which, in the data set “LD50 os (acute toxicity)”, the LD50 is > 500 mg/kg. On β-receptors (conscious dogs, i.v.), the ED50 is 0.3 mg/kg.
Regarding `CC(C)(C)NCC(O)COc1cccc2c1C(=O)OC2.Cl` (centres unmarked) [Example 5, 7-(2-Hydroxy-3-tert-butylamino-propoxy)-phthalide hydrochloride], the LD50 in “LD50 os (acute toxicity)” is > 500 mg/kg.
On to `CC(C)NCC(O)COc1ccc2c(c1)C(=O)OCC2.Cl` (centres unmarked) [Example 6, 7-(2-Hydroxy-3-isopropylamino-propoxy)-1-isochromanone hydrochloride], for which the LD50 in “LD50 os (acute toxicity)” was > 500 mg/kg. The 50% effective dose (ED50) on β-receptors came out at 0.1 mg/kg.
On the same counts, the results for `CC(C)(C)NCC(O)COc1ccc2c(c1)C(=O)OCC2.Cl` (centres unmarked) [Example 7, 7-(2-Hydroxy-3-tert-butylamino-propoxy)-1-isochromanone hydrochloride] are > 500 mg/kg and 0.055 mg/kg.
The corresponding values for `CC(C)(C)NCC(O)COc1cccc2c1COC2=O.Cl` (centres unmarked) [Example 8, 4-(2-Hydroxy-3-tert-butylaminopropoxy)-phthalide hydrochloride] are > 500 mg/kg and 0.07 mg/kg.
The corresponding values for `CC(C)(C)NCC(O)COc1ccc2c(c1)C(=O)OC2.Cl` (centres unmarked) [Example 9, 6-(2-Hydroxy-3-tert-butylamino-propoxy)-phthalide hydrochloride] are > 500 mg/kg and 0.1 mg/kg.
Take `CC(C)CNCC(O)COc1cccc2c1C(=O)OC2.Cl` (centres unmarked) [Example 10, 7-(2-Hydroxy-3-isobutylamino-propoxy)-phthalide hydrochloride]: the LD50 in “LD50 os (acute toxicity)” is > 500 mg/kg. Moreover, the median effective dose (ED50) at β-receptors came out at 0.1 mg/kg.
The corresponding values for `CC(C)(C)NCC(O)COc1cccc2c1C(=O)OCC2.Cl` (centres unmarked) [Example 12, 8-(2-Hydroxy-3-tert-butylamino-propoxy)-1-isochromanone hydrochloride] are > 500 mg/kg and 0.003 mg/kg.
The corresponding values for `COc1cc(OCC(O)CNC(C)(C)C)c2c(c1)C(=O)OC(C)C2.Cl` (centres unmarked) [Example 13, 5-(2-Hydroxy-3-tert-butylamino-propoxy)-7-methoxy-3-methyl-1-isochromanone hydrochloride] are > 500 mg/kg and 0.005 mg/kg.
On the same counts, the results for `CCC1Cc2c(OCC(O)CNC(C)(C)C)cc(OC)cc2C(=O)O1.Cl` (centres unmarked) [Example 14, 3-Ethyl-5-(2-hydroxy-3-tert-butylamino-propoxy)-7-methoxy-1-isochromanone hydrochloride] are > 500 mg/kg and 0.1 mg/kg.
As to `COc1cc(OCC(O)CNC(C)(C)C)c2c(c1)C(=O)OC(C)(C)C2.O=C(O)C(=O)O` (centres unmarked) [Example 15, 5-(2-Hydroxy-tert-butylamino-propoxy)-7-methoxy-3,3-dimethyl-1-isochromanone oxalate], in the data set “LD50 os (acute toxicity)”, the LD50 is > 500 mg/kg. Further, on β-receptors, the ED50 was 0.018 mg/kg.

(Values after patent US3935236A, “Aminopropanol substituted isochromanones and phthalides” (Gruppo Lepetit, S.p.A., priority 1973, dated 1976).)
